Legend:
Oryctolagus cuniculus [1] = species: Oryctolagus cuniculus; assay: Toxicity in Oryctolagus cuniculus (rabbit) assessed as skin irritation; type: organism-based; settings: in vivo
Oryctolagus cuniculus [2] = species: Oryctolagus cuniculus; assay: Toxicity in Oryctolagus cuniculus (rabbit) assessed as eye irritation; type: organism-based; settings: in vivo
[3] = Biodistribution in Gossypium hirsutum (cotton) plant root at 500 mg/L after 48 hr; type: ADME, organism-based; settings: read-out: Drug uptake
[4] = Biodistribution in Gossypium hirsutum (cotton) plant stem at 500 mg/L after 24 hr; type: ADME, organism-based; settings: read-out: Drug uptake
Rhizoctonia solani [5] = assay: Antifungal activity against Rhizoctonia solani in five-leaf stage of cucumber growing soil at 504 g/ha treated 48 hr before inoculation measured after 6 days relative to control by pot culture test; type: functional
[6] = Biodistribution in Gossypium hirsutum (cotton) plant leaf at 500 mg/L after 4 hr; type: ADME, organism-based; settings: read-out: Drug uptake
Botrytis cinerea [7] = assay: Antifungal activity against Botryotinia fuckeliana in cucumber plant at 281 g/ha treated 2 times in 6 days interval measured after 7 days last treatment relative to control; type: functional
Botrytis cinerea [8] = assay: Antifungal activity against Botryotinia fuckeliana in cucumber plant at 450 g/ha treated 2 times in 6 days interval measured after 7 days last treatment relative to control; type: functional
[9] = Biodistribution in Gossypium hirsutum (cotton) plant leaf at 500 mg/L after 24 hr; type: ADME, organism-based; settings: read-out: Drug uptake
Botrytis cinerea [10] = assay: Antifungal activity against Botryotinia fuckeliana in seven to eight-leaf stage of tomato plant at 315 g/ha treated 24 hr before inoculation measured after 5 days relative to control; type: functional
Rhizoctonia solani [11] = assay: Antifungal activity against Rhizoctonia solani in five-leaf stage of cucumber growing soil at 168 g/ha treated 48 hr before inoculation measured after 6 days relative to control by pot culture test; type: functional
[12] = Acute oral toxicity in Rattus norvegicus (rat); type: organism-based; settings: in vivo
[13] = Biodistribution in Gossypium hirsutum (cotton) plant leaf at 500 mg/L after 48 hr; type: ADME, organism-based; settings: read-out: Drug uptake
[14] = Biodistribution in Gossypium hirsutum (cotton) plant stem at 500 mg/L after 8 hr; type: ADME, organism-based; settings: read-out: Drug uptake
Botrytis cinerea [15] = assay: Antifungal activity against Botryotinia fuckeliana in seven to eight-leaf stage of tomato plant at 168 g/ha treated 24 hr before inoculation measured after 5 days relative to control; type: functional
[16] = Biodistribution in Gossypium hirsutum (cotton) plant root at 500 mg/L after 36 hr; type: ADME, organism-based; settings: read-out: Drug uptake
[17] = Biodistribution in Gossypium hirsutum (cotton) plant stem at 500 mg/L after 48 hr; type: ADME, organism-based; settings: read-out: Drug uptake
[18] = Biodistribution in Gossypium hirsutum (cotton) plant leaf at 500 mg/L after 36 hr; type: ADME, organism-based; settings: read-out: Drug uptake
Rhizoctonia solani [19] = assay: Antifungal activity against Rhizoctonia solani in five-leaf stage of cucumber growing soil at 315 g/ha treated 48 hr before inoculation measured after 6 days relative to control by pot culture test; type: functional
[20] = Biodistribution in Gossypium hirsutum (cotton) plant stem at 500 mg/L after 16 hr; type: ADME, organism-based; settings: read-out: Drug uptake
[21] = Biodistribution in Gossypium hirsutum (cotton) plant root at 500 mg/L after 4 hr; type: ADME, organism-based; settings: read-out: Drug uptake
[22] = Biodistribution in Gossypium hirsutum (cotton) plant leaf at 500 mg/L after 16 hr; type: ADME, organism-based; settings: read-out: Drug uptake
[23] = Biodistribution in Gossypium hirsutum (cotton) plant root at 500 mg/L after 8 hr; type: ADME, organism-based; settings: read-out: Drug uptake
[24] = Biodistribution in Gossypium hirsutum (cotton) plant leaf at 500 mg/L after 8 hr; type: ADME, organism-based; settings: read-out: Drug uptake
[25] = Acute dermal toxicity in Rattus norvegicus (rat); type: organism-based, Skin of body; settings: in vivo, topical or ocular
[26] = Biodistribution in Gossypium hirsutum (cotton) plant stem at 500 mg/L after 4 hr; type: ADME, organism-based; settings: read-out: Drug uptake
[27] = Biodistribution in Gossypium hirsutum (cotton) plant root at 500 mg/L after 24 hr; type: ADME, organism-based; settings: read-out: Drug uptake
Botrytis cinerea [28] = assay: Antifungal activity against Botryotinia fuckeliana in seven to eight-leaf stage of tomato plant at 504 g/ha treated 24 hr before inoculation measured after 5 days relative to control; type: functional
[29] = Biodistribution in Gossypium hirsutum (cotton) plant stem at 500 mg/L after 36 hr; type: ADME, organism-based; settings: read-out: Drug uptake
[30] = Biodistribution in Gossypium hirsutum (cotton) plant root at 500 mg/L after 16 hr; type: ADME, organism-based; settings: read-out: Drug uptake
Botrytis cinerea [31] = assay: Antifungal activity against Botryotinia fuckeliana in seven to eight-leaf stage of tomato plant at 563 g/ha treated 24 hr before inoculation measured after 5 days relative to control; type: functional
Rhizoctonia solani [32] = assay: Antifungal activity against Rhizoctonia solani in five-leaf stage of cucumber growing soil at 450 g/ha treated 48 hr before inoculation measured after 6 days relative to control by pot culture test; type: functional

CCCON=C1CCCCCCCCCCC(=O)NCCC1
LD50 (Oryctolagus cuniculus [1]): Non-toxic
LD50 (Oryctolagus cuniculus [2]): Toxic
concentration at 48 h [3]: 137000 ng/g
concentration at 24 h [4]: 4270 ng/g
Activity (Rhizoctonia solani [5]): 73.59%
concentration at 4 h [6]: 40 ng/g
Activity (Botrytis cinerea [7]): 89.51%
Activity (Botrytis cinerea [8]): 95.14%
concentration at 24 h [9]: 890 ng/g
Activity (Botrytis cinerea [10]): 85.82%
Activity (Rhizoctonia solani [11]): 38.99%
LD50 [12]: > 5000 mg/kg
concentration at 48 h [13]: 2530 ng/g
concentration at 8 h [14]: 870 ng/g
Activity (Botrytis cinerea [15]): 80.67%
concentration at 36 h [16]: 116000 ng/g
concentration at 48 h [17]: 5120 ng/g
concentration at 36 h [18]: 2930 ng/g
Activity (Rhizoctonia solani [19]): 53.46%
concentration at 16 h [20]: 2710 ng/g
concentration at 4 h [21]: 54400 ng/g
concentration at 16 h [22]: 330 ng/g
concentration at 8 h [23]: 66700 ng/g
concentration at 8 h [24]: 110 ng/g
LD50 [25]: > 2000 mg/kg
concentration at 4 h [26]: 190 ng/g
concentration at 24 h [27]: 98000 ng/g
Activity (Botrytis cinerea [28]): 87.51%
concentration at 36 h [29]: 8950 ng/g
concentration at 16 h [30]: 97000 ng/g

CC(C)NC(=O)N1CC(=O)N(c2cc(Cl)cc(Cl)c2)C1=O [IPRODIONE]
Activity (Botrytis cinerea [31]): 90.39%

CN(C)C(=S)SSC(=S)N(C)C [THIRAM]
Activity (Rhizoctonia solani [32]): 42.14%

— ChEMBL document CHEMBL3046961, “Fungicidal activity of 12-propoxyimino-1, 15-pentadecanlactam on selected crops” (Crop Prot, 2009)
